Experiments:
[1] = Mouse oral bioavailability; type: in vivo; conditions: whole blood (dried blood spot), male mice, IV bolus 1 mg/kg vs oral 3 mg/kg, 8-hour AUC, read-out: % F (mouse)
Method: Oral bioavailability (% F) for compounds of the invention may be determined in mice by determination of an 8-hour blood plasma AUC (nM*hr) following intravenous and oral administration performed essentially as follows. Male mice (n=3) are administered compound via intravenous (IV) bolus (1 mg/kg) or orally (3 mg/kg). For intravenous administration, a vehicle of 20% w/v capsitol in NaPO4 buffer (25 mM) adjusted to pH 2 in a volume of 5 mL/kg is used. For oral administration, a vehicle of HEC/P80/AF/PW (probe sonicated to afford a homogeneous suspension) in a volume of 10 mL/kg is used. Blood is sampled by saphenous bleeding using K2 EDTA as anticoagulant. Approximately 20 μL of blood (or enough for 1 spot) is collected via a capillary tube and transferred to a card as a dry blood spot. Cards are allowed to dry for at least 2 hours before shipping for analysis. Blood concentration of compounds for each mouse is measured by liquid chromatography/tandem mass spectrometry at time points of 0.08 (IV only), 0.25, 0.5, 0.75, 2, 4, and 8 hours. Oral bioavailability (% F) is determined via the following equation: [% F=(AUC/Dose)PO/(AUC/Dose)IV].

[2] = biological target: binding of IL-17A to IL-17RA (Homo sapiens (Human), UniProt Q16552); experiment: IL-17A:IL-17RA AlphaLISA
Method: The ability of compounds to inhibit the binding of IL-17A to IL-17RA may be assessed with an AlphaLISA assay.
To assay the compounds of the present invention, 0.1 μL of a test compound stock is serially diluted in 100% DMSO using an Echo Acoustic Liquid Handler (LabCyte Sunnydale, Calif.) in 384 well proxiplates (Perkin Elmer). A 5 μL addition of IL-17RA-FLAG is added to the plate, followed by the addition of 5 μL Avi-tagged IL-17A-His to provide a final concentration of 2 nM of IL-17RA and IL-17A, respectively. The assay is carried out in 20 mM HEPES, 150 mM NaCl, 0.05% Tween-20, 0.1% Human Serum Albumin, pH 7 and 1% DMSO. The assay mixture is allowed to incubate at room temperature for 2 hours. After the 2 hour incubation, 10 μL of streptavidin donor beads (20 μg/ml final) and anti-FLAG acceptor beads (20 μg/ml final) are added to the plate. The plate is allowed to incubate for one hour at room temp, then is read on the Envision (Perkin Elmer). The relative IC50 values are determined using a four parameter fit as shown in equation 1. In this equation, bottom and top are defined as the plateaus of the curve, and H is the Hill Slope.

[3] = biological target: human IL-17A (Homo sapiens (Human), UniProt Q16552)
Chain of human IL-17A (Q16552 20-155): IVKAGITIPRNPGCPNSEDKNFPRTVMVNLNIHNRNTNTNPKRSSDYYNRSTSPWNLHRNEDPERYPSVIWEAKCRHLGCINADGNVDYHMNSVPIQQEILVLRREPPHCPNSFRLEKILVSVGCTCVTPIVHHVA
Method: The ability of compounds to neutralize the activity of IL-17A may be assessed with a cell-based human IL-17A neutralization assay conducted essentially as follows. […] After 48 hours, CXCL1/GROα in the culture media is measured using a commercial ELISA kit (#DY275; R&D Systems). Medium alone treatments are included in every experiment to assess the basal levels of CXCL1/GROα. Percent inhibition is calculated using the following equation:

Chain of binding of IL-17A to IL-17RA (Q16552 other isoform, or with tags, fused parts or gaps): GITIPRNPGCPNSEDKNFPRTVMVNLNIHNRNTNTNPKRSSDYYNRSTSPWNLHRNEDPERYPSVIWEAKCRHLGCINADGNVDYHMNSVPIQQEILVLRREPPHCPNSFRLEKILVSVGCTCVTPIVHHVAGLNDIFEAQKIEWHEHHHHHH

Compound | bioavailability [1] [%] | IC50 [2] [nM] | IC50 [3] [nM]
COC[C@H](c1cnn2cc([C@@H](NC(=O)c3nonc3C3CC3)C3CCC(F)(F)CC3)nc2c1)N1C[C@@H](C(F)(F)F)NC1=O [Example 25, 4-Cyclopropyl-N—[(S)-(4,4-difluorocyclohexyl)-[7-[(1S)-2-methoxy-1-[(4S)-2-oxo-4-(trifluoromethyl)imidazolidin-1-yl]ethyl]imidazo[1,2-b]pyridazin-2-yl]methyl]-1,2,5-oxadiazole-3-carboxamide] | 37 | < 9.45 | 2.2 ± 1.6
COC[C@H](c1cnn2cc([C@@H](NC(=O)c3nonc3C)C3CCC(F)(F)CC3)nc2c1)N1C[C@@H](C(F)(F)F)NC1=O [Example 24, N—[(S)-(4,4-Difluorocyclohexyl)-[7-[(1S)-2-methoxy-1-[(4S)-2-oxo-4-(trifluoromethyl)imidazolidin-1-yl]ethyl]imidazo[1,2-b]pyridazin-2-yl]methyl]-4-methyl-1,2,5-oxadiazole-3-carboxamide] | 107 | < 9.45 | 9.3 ± 6
O=C(N[C@H](c1cn2ncc(CN3C[C@@H](C(F)(F)F)NC3=O)cc2n1)C1CCC(F)(F)CC1)c1conc1CC(F)F [Example 8, N—[(S)-(4,4-Difluorocyclohexyl)-[7-[[(4S)-2-oxo-4-(trifluoromethyl)imidazolidin-1-yl]methyl]imidazo[1,2-b]pyridazin-2-yl]methyl]-3-(2,2-difluoroethyl)isoxazole-4-carboxamide] | – | 15.5 | 52.4
Cc1nocc1C(=O)N[C@H](c1cn2ncc(CN3C[C@@H](C(F)(F)F)NC3=O)cc2n1)C1CCC(F)(F)CC1 [Example 3, N—[(S)-(4,4-Difluorocyclohexyl)-[7-[[(4S)-2-oxo-4-(trifluoromethyl)imidazolidin-1-yl]methyl]imidazo[1,2-b]pyridazin-2-yl]methyl]-3-methyl-isoxazole-4-carboxamide] | 35 | 27.7 ± 2.4 | 127
CC1(c2nocc2C(=O)N[C@H](c2cn3ncc(CN4C[C@@H](C(F)(F)F)NC4=O)cc3n2)C2CCC(F)(F)CC2)CC1 [Example 14, N—[(S)-(4,4-Difluorocyclohexyl)-[7-[[(4S)-2-oxo-4-(trifluoromethyl)imidazolidin-1-yl]methyl]imidazo[1,2-b]pyridazin-2-yl]methyl]-3-(1-methylcyclopropyl)isoxazole-4-carboxamide] | – | 36.1 | 33.3
CCc1nonc1C(=O)N[C@H](c1cn2ncc(CN3C[C@@H](C(F)(F)F)NC3=O)cc2n1)C1CCC(F)(F)CC1 [Example 17, N—[(S)-(4,4-Difluorocyclohexyl)-[7-[[(4S)-2-oxo-4-(trifluoromethyl)imidazolidin-1-yl]methyl]imidazo[1,2-b]pyridazin-2-yl]methyl]-4-ethyl-1,2,5-oxadiazole-3-carboxamide] | – | < 9.45 | 15.9
CC(C)c1nocc1C(=O)N[C@H](c1cn2ncc(CN3C[C@@H](C(F)(F)F)NC3=O)cc2n1)C1CCC(F)(F)CC1 [Example 16, N—[(S)-(4,4-Difluorocyclohexyl)-[7-[[(4S)-2-oxo-4-(trifluoromethyl)imidazolidin-1-yl]methyl]imidazo[1,2-b]pyridazin-2-yl]methyl]-3-isopropyl-isoxazole-4-carboxamide] | – | 19.3 | 10.8
CC(F)(F)c1nocc1C(=O)N[C@H](c1cn2ncc(CN3C[C@@H](C(F)(F)F)NC3=O)cc2n1)C1CCC(F)(F)CC1 [Example 5, N—[(S)-(4,4-Difluorocyclohexyl)-[7-[[(4S)-2-oxo-4-(trifluoromethyl)imidazolidin-1-yl]methyl]imidazo[1,2-b]pyridazin-2-yl]methyl]-3-(1,1-difluoroethyl)isoxazole-4-carboxamide] | 49 | 20 | 104
O=C(N[C@H](c1cn2ncc(CN3C[C@@H](C(F)(F)F)NC3=O)cc2n1)C1CCC(F)(F)CC1)c1conc1CF [Example 7, N—[(S)-(4,4-Difluorocyclohexyl)-[7-[[(4S)-2-oxo-4-(trifluoromethyl)imidazolidin-1-yl]methyl]imidazo[1,2-b]pyridazin-2-yl]methyl]-3-(fluoromethyl)isoxazole-4-carboxamide] | 47 | 37.8 | 128
O=C(N[C@H](c1cn2ncc(CN3C[C@@H](C(F)(F)F)NC3=O)cc2n1)C1CCC(F)(F)CC1)c1nonc1C(F)F [Example 18, N—[(S)-(4,4-Difluorocyclohexyl)-[7-[[(4S)-2-oxo-4-(trifluoromethyl)imidazolidin-1-yl]methyl]imidazo[1,2-b]pyridazin-2-yl]methyl]-4-(difluoromethyl)-1,2,5-oxadiazole-3-carboxamide] | – | < 9.45 | 22.7
O=C(N[C@H](c1cn2ncc(CN3C[C@@H](C(F)(F)F)NC3=O)cc2n1)C1CCC(F)(F)CC1)c1nonc1C1CC1 [Example 19, 4-Cyclopropyl-N—[(S)-(4,4-difluorocyclohexyl)-[7-[[(4S)-2-oxo-4-(trifluoromethyl)imidazolidin-1-yl]methyl]imidazo[1,2-b]pyridazin-2-yl]methyl]-1,2,5-oxadiazole-3-carboxamide] | 47 | – | –
O=C(N[C@H](c1cn2ncc(CN3C[C@@H](C(F)(F)F)NC3=O)cc2n1)C1CCC(F)(F)CC1)c1conc1CCF [Example 9, N—[(S)-(4,4-Difluorocyclohexyl)-[7-[[(4S)-2-oxo-4-(trifluoromethyl)imidazolidin-1-yl]methyl]imidazo[1,2-b]pyridazin-2-yl]methyl]-3-(2-fluoroethyl)isoxazole-4-carboxamide] | 12 | 10.6 | 46.5
O=C(N[C@H](c1cn2ncc(CN3C[C@@H](C(F)(F)F)NC3=O)cc2n1)C1CCC(F)(F)CC1)c1conc1C(F)(F)F [Example 11, N—[(S)-(4,4-Difluorocyclohexyl)-[7-[[(4S)-2-oxo-4-(trifluoromethyl)imidazolidin-1-yl]methyl]imidazo[1,2-b]pyridazin-2-yl]methyl]-3-(trifluoromethyl)isoxazole-4-carboxamide] | 55 | < 9.45 | 148
O=C(N[C@H](c1cn2ncc(CN3C[C@@H](C(F)(F)F)NC3=O)cc2n1)C1CCC(F)(F)CC1)c1conc1C1(F)CC1 [Example 12, N—[(S)-(4,4-Difluorocyclohexyl)-[7-[[(4S)-2-oxo-4-(trifluoromethyl)imidazolidin-1-yl]methyl]imidazo[1,2-b]pyridazin-2-yl]methyl]-3-(1-fluorocyclopropyl)isoxazole-4-carboxamide] | – | 18.1 | 107
O=C(N[C@H](c1cn2ncc(CN3C[C@@H](C(F)(F)F)NC3=O)cc2n1)C1CCC(F)(F)CC1)c1conc1C1CC(F)(F)C1 [Example 10, 3-(3,3-Difluorocyclobutyl)-N—[(S)-(4,4-difluorocyclohexyl)-[7-[[(4S)-2-oxo-4-(trifluoromethyl)imidazolidin-1-yl]methyl]imidazo[1,2-b]pyridazin-2-yl]methyl]isoxazole-4-carboxamide] | – | 47 | 48.9
O=C(N[C@H](c1cn2ncc(CN3C[C@@H](C(F)(F)F)NC3=O)cc2n1)C1CCC(F)(F)CC1)c1conc1C(F)(F)C1CC1 [Example 13, 3-[Cyclopropyl(difluoro)methyl]-N—[(S)-(4,4-difluorocyclohexyl)-[7-[[(4S)-2-oxo-4-(trifluoromethyl)imidazolidin-1-yl]methyl]imidazo[1,2-b]pyridazin-2-yl]methyl]isoxazole-4-carboxamide] | – | 47.1 | 53.1
O=C(N[C@H](c1cn2ncc(CN3C[C@@H](C(F)(F)F)NC3=O)cc2n1)C1CCC(F)(F)CC1)c1nonc1CC(F)(F)F [Example 23, N—[(S)-(4,4-difluorocyclohexyl)-[7-[[(4S)-2-oxo-4-(trifluoromethyl)imidazolidin-1-yl]methyl]imidazo[1,2-b]pyridazin-2-yl]methyl]-4-(2,2,2-trifluoroethyl)-1,2,5-oxadiazole-3-carboxamide] | – | < 9.45 | 14.9
CC(C)(F)c1nocc1C(=O)N[C@H](c1cn2ncc(CN3C[C@@H](C(F)(F)F)NC3=O)cc2n1)C1CCC(F)(F)CC1 [Example 15, N—[(S)-(4,4-Difluorocyclohexyl)-[7-[[(4S)-2-oxo-4-(trifluoromethyl)imidazolidin-1-yl]methyl]imidazo[1,2-b]pyridazin-2-yl]methyl]-3-(1-fluoro-1-methyl-ethyl)isoxazole-4-carboxamide] | – | 51.9 | 82.9
COc1nonc1C(=O)N[C@H](c1cn2ncc(CN3C[C@@H](C(F)(F)F)NC3=O)cc2n1)C1CCC(F)(F)CC1 [Example 22, N—[(S)-(4,4-Difluorocyclohexyl)-[7-[[(4S)-2-oxo-4-(trifluoromethyl)imidazolidin-1-yl]methyl]imidazo[1,2-b]pyridazin-2-yl]methyl]-4-methoxy-1,2,5-oxadiazole-3-carboxamide] | – | 11.4 | 83.4

From patent publication US12252491B2, “IL-17A inhibitors” (Eli Lilly and Company, priority 2019, dated 2025)
